Reference: PMC12392461, “Beyond Estrogenicity: A Comparative Assessment of Bisphenol A and Its Alternatives in In Vitro Assays Questions Safety of Replacements” (Environmental Science & Technology, 2025)
Where two headings read alike, the source gives them in different places.

Biological target: T1, Aryl hydrocarbon receptor (Rattus norvegicus, UniProt P41738)
T1 sequence (P41738 10-853): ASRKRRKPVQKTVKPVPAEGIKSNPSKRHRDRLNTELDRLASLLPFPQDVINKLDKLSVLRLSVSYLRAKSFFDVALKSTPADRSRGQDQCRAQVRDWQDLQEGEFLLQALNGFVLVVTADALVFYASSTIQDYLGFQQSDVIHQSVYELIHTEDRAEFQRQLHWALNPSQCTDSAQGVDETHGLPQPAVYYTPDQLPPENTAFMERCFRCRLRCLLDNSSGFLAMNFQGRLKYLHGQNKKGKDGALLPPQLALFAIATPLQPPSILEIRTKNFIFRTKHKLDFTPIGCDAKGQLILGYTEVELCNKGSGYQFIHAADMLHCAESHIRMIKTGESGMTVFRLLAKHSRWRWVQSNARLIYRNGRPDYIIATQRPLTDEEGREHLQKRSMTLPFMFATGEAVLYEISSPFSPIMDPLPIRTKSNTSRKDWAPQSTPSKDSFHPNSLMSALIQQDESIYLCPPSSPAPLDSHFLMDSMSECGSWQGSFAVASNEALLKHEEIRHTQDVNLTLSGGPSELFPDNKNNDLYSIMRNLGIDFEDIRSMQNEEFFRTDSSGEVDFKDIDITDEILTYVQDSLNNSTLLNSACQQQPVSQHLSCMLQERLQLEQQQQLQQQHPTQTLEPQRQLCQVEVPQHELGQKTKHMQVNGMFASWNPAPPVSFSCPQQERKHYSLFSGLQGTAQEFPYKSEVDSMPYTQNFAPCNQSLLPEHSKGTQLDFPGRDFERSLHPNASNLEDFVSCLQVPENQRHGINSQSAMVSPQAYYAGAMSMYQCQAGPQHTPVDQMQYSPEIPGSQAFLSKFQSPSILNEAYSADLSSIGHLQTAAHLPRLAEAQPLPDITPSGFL
Conditions: for EC10, linear transformed / EC10, linear / logEC10: Bioassay AhR, dosing range all; for EC10, linear: linear model fit; for logEC10: log-logistic model fit; for log(1/EC10) AhR: input of the ToxPi score, values up to 1.00; for SR-ScoreAhR: SR-Score, sigma k=1, x=5; for Specificity ratio (SRbaseline) SRAhR: against baseline cytotoxicity; for EC10, AhR: effect
Excerpt: All bioassay media components and the ERα-UAS-bla GripTite and PPARγ-UAS-bla cells were obtained from Thermo Fisher Scientific (Waltham, MA, USA). AREc32 reporter gene cells based on MCF7 were provided by C. Roland Wolf (Cancer Research UK); AhR CALUX cells (H4L7.5c2 derived from H4IIe) were provided by Michael Denison (UC Davis, USA); and SH-SY5Y cells were purchased from Sigma-Aldrich.
Cell culture conditions and bioassay protocols including response detection are provided in Text S2.1–2.4 and Table S3. − Cell viability was determined from cell confluency using an IncuCyte S3 Live-Cell Analysis System (Sartorius AG, Essen, Germany) before and after exposure, except for SH-SY5Y cells (live–dead staining with Nuclear Green LcS1 and propidium iodide, Abcam, UK). For metabolic activation experiments, cell viability was assessed using the ToxBLAzer DualScreen Kit (Thermo Fisher Scientific) to capture the remaining toxicity in ERα-UAS-bla GripTite after treatment with the aCYP catalyst (details in Text S2.4).
For ARE, the concentration that triggered an induction ratio of 1.5 (ECIR1.5) was used as the benchmark value, as detailed in Text S2.5. IC10 values also served as a threshold for data analysis in all assays; only concentrations below IC10 were considered when deriving EC10 or ECIR1.5. […]
S2: Cell culture and bioassays
S2.1: Cell Culturing Conditions
All suppliers and sources are given in detail in SI-Excel S3. The bioassay media for the different assays were prepared as follows: Assay medium for ER alpha-UAS-bla GripTite (ERα) and PPAR gamma-UAS-bla 293H (PPARγ) was prepared with 98% Opti-MEM, supplemented with 2% charcoal-stripped FBS, and 100 U/mL penicillin-streptomycin. MitoOxTox and AhR assay medium was comprised of 90% DMEM with GlutaMAX, supplemented with 10% FBS, and 100 U/mL penicillin-streptomycin. Neurotoxicity assay medium consisted of the neurobasal […]
(1 picture or pasted object on this page, not shown here) […]
medium, supplemented with 2% B-27 Supplement and 2 mM GlutaMAX Supplement. SH - SY5Y cells were differentiated with 10 µM all-trans retinoic acid prior to the assay.
S2.2: Cell Seeding and Incubation. For all bioassays, cell suspensions in the respective assay medium were dispensed into each well of 384-well plates using a MultiFlo Dispenser (Biotek, (now Agilent), Winooski, VT, U.S.). After seeding, the plates were incubated at 37° C and 5% CO₂ for […]. The final cell densities and plate types were as follows: Black poly-D-lysine coated 384-well plates (Product No. 354663, Corning Inc., NYC, U.S.) were used for PPARγ:
6500 cells/well, ERα: 5000 cells/well. White 384-well plates with a clear bottom (Product No.
781098, Greiner, Kremsmünster, Austria) were utilized for the MitoOxTox assay: 2650

[1] = against experimental cytotoxicity

SMILES	EC10, linear transformed	EC10, linear	logEC10	log(1/EC10) AhR	EC10, AhR (M)	SR-ScoreAhR	Specificity ratio (SRbaseline) SRAhR	Specificity ratio (SRcytotoxicity) SRAhR [1]	EC10, AhR [µM]	Specificity ratio (SRcytotoxicity) SRAhR (rat, 24 h)	SR (AhR) (specificity ratio)
CC1(C)[C@H](O)C(C)(C)[C@H]1O [Trans TMCD]	8.49E-03	no effect	-2.00	–	–	–	–	–	–	–	–
CC(C)CC(C)(c1ccc(O)cc1)c1ccc(O)cc1 [BP-MIBK, 4,4'-(1,3-Dimethylbutylidene)diphenol]	–	no effect	no effect	0.86	–	–	–	–	–	–	–
COC(=O)C(c1ccc(O)cc1)c1ccc(O)cc1 [Bz, Methyl bis(4-hydroxyphenyl)acetate]	5.80E-05	6.20E-05	-3.94	–	6.20 × 10^–5 M	0.0375	5.57	1.75	62	–	–
CC(C)c1cc(C(C)(C)c2ccc(O)c(C(C)C)c2)ccc1O [BPG, 2,2-Bis(4-hydroxy-3-isopropylphenyl)propane]	–	no effect	no effect	0.96	–	–	–	–	–	–	–
CC(C)(c1ccc(O)cc1)c1ccc(O)cc1 [BPA, 4,4'-(Propane-2,2-diyl)diphenol, reference compound]	3.80E-04	2.64E-04	no effect	0.79	2.64 × 10^–4 M	0.00737	0.10	–	264	0.00	≤ 10
CC(C)Oc1ccc(S(=O)(=O)c2ccc(O)cc2)cc1 [D8, 4-((4-Isopropoxyphenyl)sulfonyl)phenol]	–	no effect	no effect	0.75	–	–	–	–	–	–	–
CC(c1ccc(O)cc1)c1ccc(O)cc1 [BPE, 4,4′-Ethylidenbisphenol]	7.73E-05	6.19E-05	-4.12	–	6.19 × 10^–5 M	0.0256	–	–	61.9	–	–
CC1(C)C(O)C(C)(C)C1O (racemic) [r-TMCD, 2,2,4,4-Tetramethyl-1,3-cyclobutanediol (racemate)]	–	no effect	no effect	–	–	–	–	–	–	–	–
Oc1ccc(C(c2ccc(O)cc2)(C(F)(F)F)C(F)(F)F)cc1 [BPAF, 4,4'-(1,1,1,3,3,3-Hexafluoropropane-2,2-diyl)diphenol]	–	no effect	no effect	0.92	–	–	–	–	–	–	–
O=S(=O)(c1ccc(O)cc1)c1ccc(OCc2ccccc2)cc1 [BPS-MPE, 4-[4-(benzyloxy)benzenesulfonyl]phenol]	–	no effect	no effect	0.91	–	–	–	–	–	–	–
CC(C)(c1cc(Cl)c(O)c(Cl)c1)c1cc(Cl)c(O)c(Cl)c1 [TCBPA, 2,2',6,6'-Tetrachlorobisphenol A]	7.24E-05	1.69E-04	no effect	0.84	–	–	–	–	–	–	–
CC(C)(c1ccc(OCC2CO2)cc1)c1ccc(OCC2CO2)cc1 (centres unmarked) [BADGE, Bisphenol A diglycidyl ether]	–	no effect	no effect	–	–	–	–	–	–	–	–
Cc1ccc(S(=O)(=O)NC(=O)Nc2ccc(Cc3ccc(NC(=O)NS(=O)(=O)c4ccc(C)cc4)cc3)cc2)cc1 [BTUM, 4,4'-Bis(p-tolylsulfonylureido)diphenylmethane]	–	no effect	no effect	–	–	–	–	–	–	–	–
C=CCOc1ccc(S(=O)(=O)c2ccc(O)cc2)cc1 [BPS-MAE, 4-[[4-(Allyloxy)phenyl]sulfonyl]phenol]	–	no effect	no effect	0.71	–	–	–	–	–	–	–
CC1(C)[C@H](O)C(C)(C)[C@H]1O [t-TMCD, trans-2,2,4,4-Tetramethyl-1,3-cyclobutanediol]	–	–	–	0.30	–	–	–	–	–	–	–
CC(C)(c1ccc(O)c(-c2ccccc2)c1)c1ccc(O)c(-c2ccccc2)c1 [BPPH, 2,2-Bis(2-hydroxy-5-biphenylyl)propane]	9.38E-06	9.54E-06	-5.02	0.99	9.54 × 10^–6 M	0.0254	0.43	1.35	9.54	–	–
O=S(=O)(c1ccc(O)cc1)c1ccccc1O [2,4-BPS, 2,4'-Dihydroxydiphenyl sulfone]	–	no effect	no effect	0.74	–	–	–	–	–	–	–
Oc1ccc(Sc2ccc(O)cc2)cc1 [BPT, 4,4'-Thiodiphenol]	9.56E-05	no effect	masked by cytotoxicity	0.82	–	–	–	–	–	–	–
O=S(=O)(c1ccc(O)cc1)c1ccc(O)cc1 [BPS, 4,4'-Sulfonyldiphenol]	–	no effect	no effect	0.68	–	–	–	–	–	–	–
Cc1ccc(S(=O)(=O)NC(=O)Nc2cccc(OS(=O)(=O)c3ccc(C)cc3)c2)cc1 [Pergafast, N-(p-toluenesulfonyl)-N'-(3-(p-toluenesulfonyloxy)phenyl)urea]	2.45E-05	2.29E-05	-4.61	–	2.29 × 10^–5 M	0.73	6.02	–	22.9	–	–
Cc1cc(Cc2cc(C)c(O)c(C)c2)cc(C)c1O [TMBPF, Bis(3,5-dimethyl-4-hydroxyphenyl)methane]	1.03E-04	no effect	no effect	–	–	–	–	–	–	–	–
O=C(OCc1ccccc1)c1ccc(O)cc1 [BzPB, Benzyl 4-hydroxybenzoate]	1.73E-04	no effect	no effect	0.80	–	–	–	–	–	–	–
CCC(C)(c1ccc(O)cc1)c1ccc(O)cc1 [BPB, 4,4'-(Butane-2,2-diyl)diphenol]	–	no effect	no effect	0.83	–	–	–	–	–	–	–
Oc1ccc(Cc2ccc(O)cc2)cc1 [BPF, Bis(4-hydroxyphenyl)methane]	2.17E-04	1.67E-04	masked by cytotoxicity	0.66	–	–	–	–	–	–	–
CC(c1ccccc1)(c1ccc(O)cc1)c1ccc(O)cc1 [BPAP, 4,4'-(1-Phenylethylidene)bisphenol]	–	no effect	no effect	–	–	–	–	–	–	–	–
